Assay results reported in patent publication US20030203969A1, “Pharmaceutically active aromatic guanylhydrazones” (priority 2000, published 2003).

Assays:
Assay type in all cases: cell-based
[1] = tested on: T-cell-tropic HIV-1NL4/3 strain; experiment: Inhibition of T-cell-tropic HIV-1 NL4/3 replication in de novo infected Jurkat cells (p24 antigen); settings: d10
Method: HIV replication was measured either by p24 HIV Antigen Capture Assay Kit (ELISA; HIVAG-1 Monoclonal kit BIA011; Abbott) following the manufacturer's recommendation, or by using the Quantiplex HIV-1 RNA 3.0 Assay (bDNA) system (Chiron Diagnostics). The latter assay is a signal amplification nucleic acid probe assay (employing a sandwich nucleic acid hybridization procedure) for direct quantitation of HIV RNA in human plasma. There, in brief, HIV-1 is first concentrated from plasma by centrifugation. After release of genomic HIV-1 RNA from the virions, the RNA is captured to a microwell by a set of specific, synthetic oligonucleotide capture probes. A set of target probes hybridize to both the viral RNA and the pre-amplifier probes. The capture probes, comprised of 17 individual capture extenders, and the target probes, comprised of 81 individual target extenders, bind to different regions of the pol gene of the viral RNA. The amplifier probe hybridizes to the pre-amplifier forming a branched DNA (bDNA) complex. Then, multiple copies of an alkaline phosphatase labeled probe are hybridized to this immobilized bDNA complex. Detection is achieved by incubating the entire complex with a chemoluminescent substrate. Light emission is directly proportional to the amount of HIV-1 RNA present in each sample, and results are recorded as relative light units by an appropriate analyzer.
Jurkat cells (species: human T-cell leukemia; special characteristics: cells are permissive for growth of T-cell tropic HIV strains; source:ATCC Cat.No. TIB 152) or PM1 cells (species: clonal derivative of human HUT 78 cells; special characteristics: cells are permissive for growth of macrophage-tropic and T-cell tropic HIV strains; source: Dr. Marvin Reitz, courtesy of the NIH AIDS Research and Reference Reagent Program Cat.No. 3038) were stimulated with Phytohemagglutinin (PHA-P, Product No. L9132 from Sigma) in a concentration of 2 μg/ml (1.5×10^6 cells/ml) and Hexadimethrine Bromide (Polybrene, Product No. H9268 from Sigma) in a concentration of 2 μg/ml (1.5×10^6 cells/ml) in RPMI 1640 medium containing 10% fetal calf serum (FCS, Pansystems GmbH) and antibiotics for 3 days.
For HIV-1 infection, 5×10^7 cells were resuspended in 500 μl culture medium without test drugs and incubated in a 50 ml blue-cap-tube at 37° C. for 5 hrs with HIV-1 high titer viral stocks. Jurkat cells were infected with the T-cell tropic strain HIV-1 NL4-3, PM1 cells with the macrophage tropic strain HIV-1 Ba-L (both from the NIH AIDS Research and Reference Reagent Program). After infection, cells were washed twice with PBS without Ca^2+ and Mg^2+ to avoid false positive p24 antigen determination. Cells were resuspended, and identical aliquots (1×10^6/ml) of infected cells were further cultured in 10 ml medium with test drugs at various concentrations, or in medium with DMSO as control for calculation of the inhibition of virus replication (in %].
Culture medium was changed and cells were split at days 3 and 7 of the experiments. Viability of the cells (Trypan-blue staining), cell counts and p24 antigen levels were determined at days 3, 7 and 10 of the experiments. No significant differences in cell viability were observed (˜85-90% living cells).
At day 10 of infection, the HIV strains replicated vigorously in untreated cultures. Numbers describe percent inhibition of HIV replication as compared to control experiments.

[2] = tested on: MRC-5 (human embryonic lung fibroblast) cells; experiment: Drug toxicity in MRC-5 cells (CellTiter 96); settings: six day incubation, read-out: TC50 (the source's name)
Method: Drug toxicity is determined in parallel by seeding MRC-5 cells in 96 well plates and adding drugs to triplicate wells at two dilutions. After a six day incubation period, cell viability is determined using CellTiter 96 Aqueous One Solution (Promega).

[3] = tested on: Respiratory Syncytial Virus (Long)
Method: A cytoprotection assay procedure using MTS is employed to evaluate compounds for antiviral activity against Respiratory Syncytial Virus (Long) in Vero (African green monkey, ATCC Cat. No. CCL-81) cells. The cells are pre-grown overnight at 37° C. (2×10^4/well in 96 well tissue culture plates) with 10% fetal Bovine serum containing Minimum Essential Medium. The positive control for the assay is Interferon-Gamma/Ribavirin. The infection medium contains reduced serum levels (2% FBS).
Using half log dilutions with high test starting at 100 μg/ml the drug dilutions are made and added to triplicate cultures in 0.1 ml volume and pre-titrated virus suspension is also added in 0.1 ml volume. Cell control containing medium alone, virus controls containing medium and virus, the drug toxicity controls containing medium and each drug concentrations are run simultaneously with the test samples. […] CPE inhibition is determined by dye uptake procedure (Celltiter-MTS). Celltiter reagent contains a novel tetrazolium (MTS) compound and an electron coupling reagent phenazine ethosulfate (PES). MTS-tetrazolium is bioreduced by cells into a colored formazan product that is soluble in tissue culture medium. This conversion is accomplished by NADPH or NADH produced by dehydrogenase enzymes in metabolically active cells. The amount of soluble formazan produced by cellular reduction of the MTS is measured by the absorbance at 490 nm. The quantity of formazan product as measured by the amount of 490 nm absorbance is directly proportional to the number of living cells in the culture thus allowing the rapid quantitative analysis of the inhibition of virus-induced cell killing by the test substances. […]
The inhibitory drug concentration which reduces the viral replication by 95% (IC95) and the minimum drug concentration which inhibits cell growth by 95% (TC95) are calculated by using a regression analysis program for semilog curve fitting. A therapeutic (selectivity) index (TI) for compound No. 4 is determined by dividing the TC95 by the IC95.

CC(=NNC(=N)N)c1cc(NC(=O)CCCCCCCCC(=O)Nc2cc(C(C)=NNC(=N)N)cc(C(C)=NNC(=N)N)c2)cc(C(C)=NNC(=N)N)c1 [Compound 4, N,N′-bis (3,5-diacetylphenyl) decane diamide tetrakis (amidinohydrazone)]
percent inhibition of HIV replication as compared to control ([1]; HIV-1 NL4/3, 0.5 μM): 31%
percent inhibition of HIV replication as compared to control ([1]; HIV-1 NL4/3, 1.0 μM): 85%
CC50 [2]: 13600 nM
Comment ([3]; RSV, at the IC95/TC95 level): Active
IC50 ([3]; Vero cells newly infected with RSV): 1460 nM
IC95 ([3]; reduces the viral replication by 95%): 2960 nM
